From ChEMBL document CHEMBL6115036, “Exploration of membrane-active cephalosporin derivatives as potent antibacterial agents against Staphylococcus aureus biofilms and persisters” (Eur J Med Chem, 2025)
Values after ≈ are worked out from the molar mass of the structure shown. Active and inactive are the calls of the source. The calls are words filed in the database; no cut-off is given here.

Columns and labels:
[1] = system: Staphylococcus aureus; assay: Antibacterial activity against Staphylococcus aureus in presence of 50% FBS; format: functional, organism-based
[2] = system: Staphylococcus aureus; assay: Antibacterial activity against Staphylococcus aureus in presence of 50% sheep plasma; format: functional, organism-based
[3] = system: Staphylococcus aureus; assay: Induction of resistance development in drug-resistant Staphylococcus aureus at sub-MIC measured after 20 passages in presence of linezolid; format: functional, organism-based
[4] = system: Stenotrophomonas maltophilia; assay: Antimicrobial activity against Stenotrophomonas maltophilia incubated for 16 to 18 hrs by broth dilution assay; format: functional; conditions: time 16-18 hrs
[5] = system: Staphylococcus aureus; assay: Bactericidal activity against Staphylococcus aureus measured for 3 to 6 hrs in presence of 50% sheep plasma; format: functional, organism-based; conditions: time 3-6 hrs
[6] = system: Staphylococcus aureus; assay: Induction of resistance development in drug-resistant Staphylococcus aureus at sub-MIC measured after 20 passages in presence of ciprofloxacin; format: functional, organism-based
[7] = system: Staphylococcus aureus; assay: Antimicrobial activity against Staphylococcus aureus incubated for 16 to 18 hrs by broth dilution assay; format: functional; conditions: time 16-18 hrs
[8] = system: Staphylococcus aureus; assay: Disruption of cell membrane in Staphylococcus aureus assessed as nucleic acid leakage at 32 ug/ml measured after 2 hrs by fluorescence based analysis; format: functional, organism-based; conditions: dose 32.0 µg/ml
[9] = system: Staphylococcus aureus; assay: Disruption of cell membrane in Staphylococcus aureus assessed as protein leakage at 32 ug/ml measured after 2 hrs by fluorescence based analysis; format: functional, organism-based; conditions: dose 32.0 µg/ml
[10] = system: Staphylococcus aureus; assay: Induction of resistance development in drug-resistant Staphylococcus aureus at sub-MIC measured after 20 passages in presence of cefuroxime sodium; format: functional, organism-based
[11] = system: Staphylococcus aureus; assay: Antibacterial activity against rifampicin-induced persistant Staphylococcus aureus assessed as decrease in CFU at 100 times MIC measured for 10 hrs; format: functional, organism-based
[12] = system: Escherichia coli; assay: Antimicrobial activity against Escherichia coli incubated for 16 to 18 hrs by broth dilution assay; format: functional; conditions: time 16-18 hrs
[13] = system: Staphylococcus aureus; assay: Induction of resistance development in Staphylococcus aureus at sub-MIC measured after 20 passages; format: functional, organism-based
[14] = system: Staphylococcus aureus; assay: Induction of resistance development in drug-resistant Staphylococcus aureus at sub-MIC measured after 20 passages in presence of vancomycin; format: functional, organism-based
[15] = system: Staphylococcus aureus; assay: Induction of resistance development in drug-resistant Staphylococcus aureus at sub-MIC measured after 20 passages in presence of levofloxacin; format: functional, organism-based
[16] = system: Staphylococcus aureus; assay: Antibacterial activity against Staphylococcus aureus infected in Kunming mouse model of subcutaneous abscess assessed as reduction in bacterial load in skin tissue at 10 mg/kg, sc measured after 48 hrs relative to control; format: functional; parameters: scale not given: the % may be the effect or the level left
[17] = system: Enterococcus faecalis; assay: Antimicrobial activity against Enterococcus faecalis incubated for 16 to 18 hrs by broth dilution assay; format: functional; conditions: time 16-18 hrs
[18] = system: Staphylococcus aureus; assay: Induction of resistance development in drug-resistant Staphylococcus aureus at sub-MIC measured after 20 passages in presence of norfloxacin; format: functional, organism-based
[19] = system: Staphylococcus aureus; assay: Inhibition of biofilm formation in Staphylococcus aureus assessed as decrease in bacterial count at 32 times MIC incubated for 24 hrs by CLSM analysis; format: functional, organism-based
[20] = system: Staphylococcus aureus; assay: Induction of resistance development in drug-resistant Staphylococcus aureus at sub-MIC measured after 20 passages in presence of ampicillin sodium; format: functional, organism-based
[21] = system: Staphylococcus aureus; assay: Induction of resistance development in drug-resistant Staphylococcus aureus at sub-MIC measured after 20 passages in presence of rifampicin; format: functional, organism-based
[22] = system: Staphylococcus aureus; assay: Antibacterial activity against Staphylococcus aureus infected in Kunming mouse model of subcutaneous abscess assessed as bacterial count in skin tissue at 10 mg/kg, sc measured after 48 hrs; format: functional
[23] = Hemolytic activity in sheep red blood cells incubated for 1 hr; format: toxicity, cell-based, Ovis aries, Erythrocyte
[24] = system: Staphylococcus aureus; assay: Induction of intracellular ROS accumulation in Staphylococcus aureus at 1 to 4 times MIC incubated overnight by DCFH-DA dye based analysis; format: functional, organism-based
[25] = system: Staphylococcus aureus; assay: Antibacterial activity against Staphylococcus aureus assessed as effect on quiescent cells at 100 to 200 times MIC incubated for 24 hrs; format: functional, organism-based
[26] = Toxicity in Kunming mouse model of subcutaneous abscess infected with Staphylococcus aureus assessed as histopathological abnormalities in lung at 5 to 10 mg/kg, sc measured after 48 hrs by H and E staining based analysis; format: organism-based; conditions: in vivo, dose 5-10 mg/kg
[27] = Toxicity in Kunming mouse model of subcutaneous abscess infected with Staphylococcus aureus assessed as damage in spleen at 5 to 10 mg/kg, sc measured after 48 hrs by H and E staining based analysis; format: organism-based; conditions: in vivo, dose 5-10 mg/kg
[28] = system: Staphylococcus aureus; assay: Induction of cytoplasmic membrane depolarization in Staphylococcus aureus assessed as increase in fluorescence intensity at 32 ug/ml measured for 20 mins by DiSC3(5) dye based analysis; format: functional, organism-based; conditions: dose 32.0 µg/ml
[29] = Cytotoxicity against human HeLa cells incubated for 24 hrs by CCK8 assay; format: toxicity, cell-based
[30] = Toxicity in Kunming mouse model of subcutaneous abscess infected with Staphylococcus aureus assessed as histopathological abnormalities in kidney at 5 to 10 mg/kg, sc measured after 48 hrs by H and E staining based analysis; format: organism-based; conditions: in vivo, dose 5-10 mg/kg
[31] = Toxicity in Kunming mouse model of subcutaneous abscess infected with Staphylococcus aureus assessed as histopathological abnormalities in spleen at 5 to 10 mg/kg, sc measured after 48 hrs by H and E staining based analysis; format: organism-based; conditions: in vivo, dose 5-10 mg/kg
[32] = Toxicity in Kunming mouse model of subcutaneous abscess infected with Staphylococcus aureus assessed as damage in heart at 5 to 10 mg/kg, sc measured after 48 hrs by H and E staining based analysis; format: organism-based; conditions: in vivo, dose 5-10 mg/kg
[33] = system: Staphylococcus aureus; assay: Inhibition of biofilm formation in Staphylococcus aureus assessed as reduction in number of live bacterial count at 16 times MIC incubated for 24 hrs; format: functional
[34] = system: Staphylococcus aureus; assay: Bactericidal activity against Staphylococcus aureus assessed as reduction in bacterial colony count at 4 to 8 times MIC incubated for 8 hrs by time kill assay; format: functional, organism-based
[35] = system: Staphylococcus aureus; assay: Inhibition of metabolic activity in Staphylococcus aureus incubated for 6 hrs by Alamar blue assay; format: functional, organism-based
[36] = Toxicity in Kunming mouse model of subcutaneous abscess infected with Staphylococcus aureus assessed as damage in liver at 5 to 10 mg/kg, sc measured after 48 hrs by H and E staining based analysis; format: organism-based; conditions: in vivo, dose 5-10 mg/kg
[37] = system: Staphylococcus aureus; assay: Antibacterial activity against Staphylococcus aureus infected in Kunming mouse model of subcutaneous abscess assessed as reduction in number of bacteria in skin tissue at 5 to 10 mg/kg, sc measured after 48 hrs; format: functional, organism-based; conditions: dose 5-10 mg/kg
[38] = system: Staphylococcus aureus; assay: Antibacterial activity against Staphylococcus aureus infected in Kunming mouse model of subcutaneous abscess assessed as surviving bacteria in skin tissue at 10 mg/kg, sc measured after 48 hrs relative to control; format: functional
[39] = system: Staphylococcus aureus; assay: Antibacterial activity against Staphylococcus aureus infected in Kunming mouse model of subcutaneous abscess assessed as decrease in neutrophil level in skin tissue at 5 mg/kg, sc measured after 48 hrs by H and E staining based analysis; format: functional, organism-based
[40] = system: Staphylococcus aureus; assay: Antibacterial activity against Staphylococcus aureus assessed as inhibition of bacterial growth at stationary phase at 32 times MIC incubated for 4 hrs; format: functional, organism-based
[41] = system: Staphylococcus aureus; assay: Disruption of cell membrane in Staphylococcus aureus assessed as nucleic acid leakage measured after 2 hrs by fluorescence based analysis; format: functional, organism-based; conditions: dose 8-32 µg/ml
[42] = system: Staphylococcus aureus; assay: Induction of intracellular ROS accumulation in Staphylococcus aureus incubated overnight by DCFH-DA dye based analysis; format: functional, organism-based
[43] = Toxicity in Kunming mouse model of subcutaneous abscess infected with Staphylococcus aureus assessed as damage in kidney at 5 to 10 mg/kg, sc measured after 48 hrs by H and E staining based analysis; format: organism-based; conditions: in vivo, dose 5-10 mg/kg
[44] = system: Staphylococcus aureus; assay: Disruption of cell membrane in Staphylococcus aureus assessed as protein leakage measured after 2 hrs by fluorescence based analysis; format: functional, organism-based; conditions: dose 8-32 µg/ml
[45] = Toxicity in Kunming mouse model of subcutaneous abscess infected with Staphylococcus aureus assessed as damage in lung at 5 to 10 mg/kg, sc measured after 48 hrs by H and E staining based analysis; format: organism-based; conditions: in vivo, dose 5-10 mg/kg
[46] = system: Staphylococcus aureus; assay: Induction of inner membrane permeability in Staphylococcus aureus assessed as increase in fluorescence intensity at 32 ug/ml measured for 20 mins by PI dye based analysis; format: functional, organism-based; conditions: dose 32.0 µg/ml
[47] = Toxicity in Kunming mouse model of subcutaneous abscess infected with Staphylococcus aureus assessed as histopathological abnormalities in liver at 5 to 10 mg/kg, sc measured after 48 hrs by H and E staining based analysis; format: organism-based; conditions: in vivo, dose 5-10 mg/kg
[48] = system: Staphylococcus aureus; assay: Inhibition of biofilm formation in Staphylococcus aureus assessed as punctate distribution at 32 times MIC incubated for 24 hrs by CLSM analysis; format: functional, organism-based
[49] = system: Staphylococcus aureus; assay: Antibacterial activity against rifampicin-induced persistant Staphylococcus aureus assessed as decrease in CFU at 16 times MIC measured for 10 hrs; format: functional
[50] = system: Staphylococcus aureus; assay: Inhibition of biofilm formation in Staphylococcus aureus at 16 times MIC incubated for 24 hrs; format: functional, organism-based
[51] = system: Staphylococcus aureus; assay: Bactericidal activity against rifampicin-induced persistant Staphylococcus aureus at 32 times MIC measured for 10 hrs; format: functional, organism-based
[52] = Toxicity in Kunming mouse model of subcutaneous abscess infected with Staphylococcus aureus assessed as histopathological abnormalities in heart at 5 to 10 mg/kg, sc measured after 48 hrs by H and E staining based analysis; format: organism-based; conditions: in vivo, dose 5-10 mg/kg
[53] = Cytotoxicity against HUVEC cells incubated for 24 hrs by CCK8 assay; format: toxicity, cell-based; conditions: human
[54] = system: Staphylococcus aureus; assay: Antibacterial activity against Staphylococcus aureus infected in Kunming mouse model of subcutaneous abscess assessed as decrease in inflammation in skin tissue at 5 mg/kg, sc measured after 48 hrs by H and E staining based analysis; format: functional, organism-based

Compound: CC(=O)OCC1=C(C(=O)O)N2C(=O)[C@@H](NC(=O)Cc3cccs3)[C@H]2SC1 [CEPHALOTHIN]
- Activity [1]: Active; Mic Value Of Compound In Serum Was Equal To Mic In Mhb Medium
- Activity [2]: Active; Mic Value Of Compound In Plasma Was Equal To Mic In Mhb Medium
- Activity [3]: inactive
- MIC [4]: 16 µg/mL (≈ 40.4 µM)
- Activity [5]: Active
- Activity [6]: inactive
- MIC [7]: 0.25 µg/mL (≈ 0.631 µM)
- Activity [8]: inactive
- Activity [9]: inactive
- Activity [10]: inactive
- Activity [11]: inactive
- MIC [12]: 16 µg/mL (≈ 40.4 µM)
- Activity [13]: inactive
- Activity [14]: inactive
- Activity [15]: inactive
- Activity [16]: 54%
- MIC [17]: 32 µg/mL (≈ 80.7 µM)
- Activity [18]: inactive
- inhibition [19]: inactive
- Activity [20]: inactive
- Activity [21]: inactive
- Activity [22]: ~2 10^7CFU/ml
- HC50 at 1 h [23]: > 1280 µg/mL
- Activity [24]: inactive
- Activity [25]: inactive

Compound: CCCCCCCCCCCCCCCC[n+]1ccc(-c2cc[n+](CC3=C(C(=O)[O-])N4C(=O)[C@@H](NC(=O)Cc5ccccc5)[C@H]4SC3)cc2)cc1.O=C([O-])C(F)(F)F
- Activity [1]: Active; Mic Value Of Compound In Serum Was Equal To Mic In Mhb Medium
- Activity [26]: Non-toxic
- Activity [27]: Non-toxic
- Activity [2]: Active; Mic Value Of Compound In Plasma Was Equal To Mic In Mhb Medium
- Activity [3]: inactive
- MIC [4]: 128 µg/mL
- Activity [5]: Active
- Activity [6]: inactive
- Activity [28]: Active
- CC50 at 24 h [29]: 34.7 µg/mL
- MIC [7]: 4 µg/mL
- Activity [30]: Non-toxic
- Activity [31]: Non-toxic
- Activity [32]: Non-toxic
- Activity [33]: ~1 10^8CFU/ml
- Activity [10]: inactive
- MIC [12]: 128 µg/mL
- Activity [34]: Active
- Activity [13]: inactive
- inhibition [35]: Dose-dependent-effect
- Activity [14]: inactive
- Activity [36]: Non-toxic
- Activity [37]: Active
- Activity [15]: inactive
- Activity [38]: 0.13%
- Activity [39]: Active
- inhibition [40]: Active
- Activity [41]: Dose-dependent-effect
- Activity [42]: Dose-dependent-effect
- Activity [16]: 99.87%
- Activity [43]: Non-toxic
- MIC [17]: 32 µg/mL
- Activity [18]: inactive
- inhibition [19]: Active
- Activity [44]: Dose-dependent-effect
- Activity [45]: Non-toxic
- Activity [20]: inactive
- Activity [46]: Active
- Activity [21]: inactive
- Activity [47]: Non-toxic
- inhibition [48]: Active
- HC50 at 1 h [23]: 112 µg/mL
- Activity [49]: ~1 10^5CFU/ml
- inhibition [50]: Active; Compound Activity Better Than Vancomycin, Rifampicin And Cephalothin
- Activity [51]: Active
- Activity [52]: Non-toxic
- CC50 at 24 h [53]: 15.7 µg/mL
- Activity [54]: Active
